Measured values: patent publication US20100061994A1, “MEDICAL USES OF 39-DESMETHOXYRAPAMYCIN AND ANALOGUES THEREOF” (priority 2005, published 2010)
Several values for one entry are separate records, joined by “and”; a condition that tells them apart may be missing. Equal entries are not always repeated. Where two headings read alike, the source gives them in different places.

What was measured:
[1] = test system: EAE; assay: Experimental allergic encephalomyelitis (EAE) model of multiple sclerosis; format: in vivo, male Lewis rats; settings: rat, in vivo
[2] = Caco-2 permeation assay; settings: human, Caco-2, pH 7.4
Description: (§1) Confluent Caco-2 cells (Li, A. P., 1992; Grass, G. M., et al., 1992, Volpe, D. A., et al., 2001) in a 24 well Corning Costar Transwell format were provided by In Vitro Technologies Inc. (IVT Inc., Baltimore, Md., USA). The apical chamber contained 0.15 mL Hank's balanced buffer solution (HBBS) pH 7.4, 1% DMSO, 0.1 mM Lucifer Yellow. The basal chamber contained 0.6 mL HBBS pH 7.4, 1% DMSO. Controls and tests were incubated at 37° C. in a humidified incubator, shaken at 130 rpm for 1 h. Lucifer Yellow permeates via the paracellular (between the tight junctions) route only, a high Apparent Permeability (Papp) for Lucifer Yellow indicates cellular damage during assay and all such wells were rejected. […] Compounds were tested in a uni- and bi-directional format by applying compound to the apical or basal chamber (at 0.01 mM). Compounds in the apical or basal chambers were analysed by HPLC-MS (Method A, see Materials & Methods). Results were expressed as Apparent Permeability, Papp, (nm/s) and as the Flux Ratio (A to B versus B to A).
(§2) [formula] • Volume Acceptor: 0.6 ml (A>B) and 0.15 ml (B>A) • Area of monolayer: 0.33 cm2 • Δtime: 60 min
(§3) A positive value for the Flux Ratio indicates active efflux from the apical surface of the cells.

[3] = target: FKBP12 (Homo sapiens, UniProt P62942); assay: In vitro FKBP12 binding assay (GdnHCl unfolding)
Text: FKBP12 reversibly unfolds in the chemical denaturant guandinium hydrochloride (GdnHCl) and the unfolding can be monitored by the change in the intrinsic fluorescence of the protein (Main et al, 1998). Ligands which specifically bind and stabilise the native state of FKBP12 shift the denaturation curve such that the protein unfolds at higher concentrations of chemical denaturant (Main et al, 1999). From the difference in stability, the ligand-binding constant can be determined using equation 1.
where ΔGapp is the apparent difference in free energy of unfolding between free and ligand-bound forms, ΔGD−N^H^2^O is the free energy of unfolding in water of free protein, [L] the concentration of ligand and kd the dissociation constant for the protein-ligand complex (Meiering et al, 1992). The free energy of unfolding can be related to the midpoint of the unfolding transition using the following equation: […]
where mD−N is a constant for a given protein and given denaturant and which is proportional to the change in degree of exposure of residues on unfolding (Tanford 1968 and Tanford 1970), and [D]50% is the concentration of denaturant corresponding to the midpoint of unfolding.
where <mD−N> is the average m-value of the unfolding transition and Δ[D]50% the difference in midpoints for the rapamycin-FKBP12 unfolding transition and unknown-ligand-FKBP12 complex unfolding transition. Under conditions where [L]>Kd, then, ΔΔGD−N, can be related to the relative Kds of the two compounds through equation 4: […]

[4] = Human Liver Microsomal (HLM) stability assay; format: in vitro ADME; settings: 0.001 mM, 0.25 mg/mL protein, NADPH, 37° C.
Description: Liver homogenates provide a measure of a compounds inherent vulnerability to Phase I (oxidative) enzymes, including CYP450s (e.g. CYP2C8, CYP2D6, CYP1A, CYP3A4, CYP2E1), esterases, amidases and flavin monooxygenases (FMOs).
The half life (T½) of test compounds was determined, on exposure to Human Liver Microsomes, by monitoring their disappearance over time by LC-MS. Compounds at 0.001 mM were incubated at for 40 min at 37° C., 0.1 M Tris-HCl, pH 7.4 with human microsomal sub-cellular fraction of liver at 0.25 mg/mL protein and saturating levels of NADPH as co-factor. At timed intervals, acetonitrile was added to test samples to precipitate protein and stop metabolism. Samples were centrifuged and analysed for parent compound using analytical Method A (see Materials & Methods).

[5] = Pharmacokinetic analysis Protocol 1 (blood and brain); settings: female, CD1, mouse, 3 mg/kg
Description: The test compounds were prepared in a vehicle consisting of 4% Ethanol, 5% Tween-20, 5% polyethyleneglycol 400 in 0.15M NaCl. A single dbse of 10 mg/kg p.o. or 3 mg/kg i.v. was administered to groups of female CD1 mice (3 mice for each compound per time point). At 0 min, 4 min, 15 min, 1 h, 4 h, and 24 h groups were sacrificed and the blood and the brain were collected from each mouse for further analysis.
The brain samples were snap frozen in liquid nitrogen and stored at −20° C. A minimum of 0.2 mL of whole blood from each animal was collected in tubes containing ethylene diamine tetra-acetic acid (EDTA) as anticoagulant, thoroughly mixed, and stored at −20° C.
Analysis was performed by ASI Limited, (St George's Hospital Medical School, London). The concentration of the test compound in the blood and brain samples supplied was determined by HPLC with MS detection. Control, test compound free, blood samples were obtained from Harlan Sera-Lab Limited, (Loughborough, England). Time zero brain samples were supplied as control, test compound free, brain samples.
One hemisphere of each brain was homogenized with 5 mL water.
The control or test sample of mouse brain or blood (0.05 mL), internal standard solution (0.1 mL), 5% Zinc sulphate solution (0.5 mL), and acetone (0.5 mL) were pipetted into a 2 mL polypropylene tube (Sarstedt Limited, Beaumont Leys, Leicester, UK) and the contents were then mixed for a minimum of 5 minutes (IKA-Vibrax-VXR mixer, Merck (BDH) Limited, Poole Dorset, UK). The tubes were then centrifuged in a microfuge for a minimum of 2 minutes. The solvent layer was decanted into a 4.5 mL polypropylene tube containing sodium hydroxide (0.1M, 0.1 mL) and methyl-tert-butyl ether (MTBE, 2 mL). The tube was then mixed for a minimum of 5 minutes (IKA-Vibrax-VXR mixer) and then centrifuged at 3500 rpm for 5 minutes. The solvent layer was transferred to a 4.5 mL conical polypropylene tube, placed in a SpeedVac® and evaporated to dryness.
The dried extracts were reconstituted with 0.15 mL 80% methanol and mixed for a minimum of 5 minutes (IKA-Vibrax-VXR mixer) and centrifuged at 3500 rpm for 5 minutes. The extract was transferred to auto sampler tubes (NLG Analytical, Adelphi Mill, Bollington, Cheshire, UK) and placed into the auto-sampler tray which was set at ambient temperature. The auto-sampler was programmed to inject a 0.03 mL aliquot of each extract onto the analytical column.
The AUC for each compound in blood or in brain tissue was calculated using Kinetica 4.4 (InnaPhase Corporation), using a non-compartmental model and the trapezoidal method for AUC calculation.
The partition coefficient (Ri) for each compound after p.o. and i.v. administration was calculated as shown below:
The partition coefficient (R) for each compound after i.v. administration was calculated as shown below:

[6] = test system: Caco-2 cells; assay: Caco-2 permeation assay; settings: 0.01 mM
Description: as §1, §2, §3

[7] = relative to literature Kd of rapamycin 0.2 nM

Chain of FKBP12 (P62942 whole entry, species assumed): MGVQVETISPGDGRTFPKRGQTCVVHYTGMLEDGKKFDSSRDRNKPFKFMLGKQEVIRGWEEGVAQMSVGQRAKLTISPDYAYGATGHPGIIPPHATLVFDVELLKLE

O=P1(N(CCCl)CCCl)NCCCO1 (centres unmarked) [Cyclophosphamide, reference compound]
Cumulative score Mean ± St Dev. [1]: 33 ± 14.1 and 37 ± 26.6 | Duration (days) Mean ± St Dev. [1]: 13 ± 3.4 days and 15 ± 3.2 days | Onset Mean ± St Dev. [1]: 13 ± 2.6 and 11 ± 1.1

CO[C@H]1CC2CC[C@@H](C)[C@@](O)(O2)C(=O)C(=O)N2CCCC[C@H]2C(=O)O[C@H]([C@@H](C)CC2CCC(O)CC2)CC(=O)[C@@H](C)/C=C(\C)[C@H](O)[C@H](O)C(=O)[C@@H](C)C[C@H](C)/C=C/C=C/C=C/1C (some centres unmarked) [27-O-desmethyl-39-desmethoxyrapamycin]
Papp at 1 h, 0.01 mM [2]: 0.4 ×10⁻⁶ cm/s | efflux ratio at 1 h, 0.01 mM [2]: 91 | Kd [3, 7]: 0.8 nM | half-life at 0.001 mM ([4]; human, liver microsomes, pH 7.4, read-out: HLM stability: T½ min): 27 min | Kp ([5]; brain / whole blood, intravenous): 4.56 | AUC ([5]; whole blood, iv): 1850 ng·h/mL

16-O-desmethyl-27-O-desmethyl-39-desmethoxyrapamycin
Caco-2: Efflux Ratio ([6]; bi-directional format): 37 | Caco-2: Papp ([6]; pH 7.4, 1 h): 1.3 ×10⁻⁶ cm/s | Kd [3, 7]: 101 nM | HLM stability: T½ min [4]: 47 min

COC1CC2CCC(C)C(O)(O2)C(=O)C(=O)N2CCCCC2C(=O)OC(C(C)CC2CCC(O)CC2)CC(=O)C(C)C=C(C)C(O)CC(=O)C(C)CC(C)C=CC=CC=C1C (centres unmarked) [27-desmethoxy-39-desmethoxy rapamycin]
Kd [3]: 160 nM
